# Legend:
# [1] = molecular target: T1, bradykinin B2 receptor (Cavia porcellus, UniProt O70526); test: Inhibition of [3H]-bradykinin binding to guinea-pig ileum membranes; settings: test compound 10^-6 M, [3H]-bradykinin 120 pM, 90 min at 20° C.
# T1 construct: Ileum segments are isolated from male guinea-pigs; from tissue; host or cells: guinea-pig ileum (Dunkin-Hartley strain; animals from Iffa Credo)
# T1 sequence (O70526 1-372): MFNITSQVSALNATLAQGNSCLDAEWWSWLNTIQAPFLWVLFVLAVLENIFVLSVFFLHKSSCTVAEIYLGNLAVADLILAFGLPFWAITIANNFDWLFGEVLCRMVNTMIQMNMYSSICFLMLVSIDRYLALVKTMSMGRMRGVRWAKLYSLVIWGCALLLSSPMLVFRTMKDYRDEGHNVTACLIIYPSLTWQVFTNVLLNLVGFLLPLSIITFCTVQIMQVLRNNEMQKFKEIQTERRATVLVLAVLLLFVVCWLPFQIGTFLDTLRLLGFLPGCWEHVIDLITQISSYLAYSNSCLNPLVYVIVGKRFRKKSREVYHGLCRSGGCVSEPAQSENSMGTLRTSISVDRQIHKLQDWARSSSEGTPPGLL
# Protocol: The following pharmacological test is used: Ileum segments are isolated from male guinea-pigs [of the Dunkin-Hartley strain (Iffa Credo, l'Arbresle, France)] and ground in the following TES buffer: TES 25 mM, 1,10-phenanthroline 1 mM (pH 6.8), bacitracin 140 μg/ml, BSA 1 g/l. The membranes are then isolated by centrifugation (18,000 rpm; 20 min 4° C.). The binding studies are carried out in this TES buffer using [^3H]-bradykinin (120 pM) and 50 μg of membrane protein per test (final volume 500 μl) with an equilibrium time of 90 min at 20° C. The percentage inhibition of the binding of [^3H]-bradykinin is then determined in the presence of one of the test compounds according to the invention at a concentration of 10^−6 M.
# The results obtained from these tests (shown as “activity”) are collated in Table I below with reference to the Examples given in the description. In this Table, the meaning of the heterocyclic radicals Q is given in the notes and the nature of the salts is indicated by the abbreviations Chl in the case of a hydrochloric acid salt and Ms in the case of a methanesulfonic acid salt.
# [2] = molecular target: T1, bradykinin B2 receptor; test: Antagonism of bradykinin-induced B2 receptor activation on guinea-pig ileum (pKB, Pruneau et al.); settings: antagonism of bradykinin at B2 receptor
# Source text: The compounds according to the invention have an antagonistic effect towards the bradykinin B2 receptor (they inhibit the activation of the B2 receptors which is induced by bradykinin). […] The experimental results, evaluated by the pKB described in the above publication, are reported in the summary Table.
SMILES,Activity % (percentage inhibition of the binding of [3H]-bradykinin) [1],pKB [2]
"CS(=O)(=O)O.CS(=O)(=O)O.Cc1cc(=O)n2cccc(OCc3c(Cl)ccc(S(=O)(=O)N4CCC[C@H]4C(=O)NCCCNC(=O)c4ccc(C(=N)N)cc4)c3Cl)c2n1 [Example 30, 1-[[3-[[2-Methyl-4H-pyrido[1,2-a]pyrimidin-9-yl-4-one]oxymethyl]-2,4-dichlorophenyl]sulfonyl]-N-[3-[[4-(aminoiminomethyl)benzoyl]amino]propyl]-2(S)-pyrrolidinecarboxamide Bis(methanesulfonate)]",99.3%,7.9
CS(=O)(=O)O.CS(=O)(=O)O.Cc1nc2c(OCc3c(Cl)ccc(S(=O)(=O)N4CCC[C@H]4C(=O)N4CCN(C(=O)c5ccc(C(=N)N)cc5)CC4)c3Cl)cccn2c1Cl [Example 41],100%,–
"CC(=O)c1c(C)nc2c(OCc3c(Cl)ccc(S(=O)(=O)N4CCC[C@H]4C(=O)NCCCNC(=O)c4ccc(C(=N)N)cc4)c3Cl)cccn12.CS(=O)(=O)O.CS(=O)(=O)O [Example 44, 1-[[3-[[3-Acetyl-2-methylimidazo[1,2-a]pyridin-8-yl]oxymethyl]-2,4-dichlorophenyl]sulfonyl]-N-[3-[[4-(aminoiminomethyl)benzoyl]amino]propyl]-2(S)-pyrrolidinecarboxamide Bis(methanestilfonate)]",100%,–
"CS(=O)(=O)O.CS(=O)(=O)O.Cc1nc2c(OCc3c(Cl)ccc(S(=O)(=O)N4CCC[C@H]4C(=O)NCCCNC(=O)c4ccc(C(=N)N)cc4)c3Cl)cccn2c1Cl [Example 38, 1-[[3-[[3-Chloro-2-methylimidazo[1,2-a]pyridin-8-yl]oxymethyl]-2,4-dichlorophenyl]sulfonyl]-N-[3-[[4-(aminoimiomethyl)benzoyl]amino]propyl]-2(S)-pyrrolidinecarboxamide Bis(methanesulfonate)]",100%,–
CS(=O)(=O)O.CS(=O)(=O)O.Cc1cc(=O)n2cccc(OCc3c(Cl)ccc(S(=O)(=O)N4CCC[C@H]4C(=O)N4CCN(C(=O)c5ccc(C(=N)N)cc5)CC4)c3Cl)c2n1 [Example 33],96%,7.8

# — patent publication US6384222B1, “N-benzenesulfonyl-L-proline compounds, preparation method and method for using the compounds in therapy” (Fournier Industrie et Sante, priority 1997, dated 2002)
